Laboratory results: patent US5789414A, “Pharmaceutical compositions comprising tetrahydropyrimidine derivates” (Yeda Research and Development Co. Ltd., priority 1992, dated 1998)
Numbered stars: 1 amine (or outer) side, 2 acyl side, 3 side chain; on linkers, the order of the positions; unused ones are H or OH. Bridge positions count the residues as written; N and C are the ends. Square brackets hold non-standard residues; d marks the D form. Peptide text beside a SMILES is read from it. I, II: the chains in the order shown. Actinocin(9to1) = Cc1c2oc3c(C)ccc(C(=O)[*:1])c3nc-2c(C(=O)[*:2])c(N)c1=O; NMeV = CN[C@H](C(=O)O)C(C)C; Sar = CNCC(=O)O

Legend:
[1] = tested on: gram positive and gram negative bacteria; experiment: Antibiotic activity test on bacterial cultures; format: cell-based; conditions: several cultures of gram positive and gram negative bacteria
Source text: (§1) THP(A) and THP(B) are not toxic to mammals.

[2] = tested on: RNA polymerase II from HeLa cells; experiment: In vitro transcription of dCMP-tailed template, RNA polymerase II; format: biochemical, mammalian; conditions: for effect of the THP by itself on the transcription reactions: lanes 2, 6, 10
Method: FIG. 5 is a radiogram showing the inhibition of RNA polymerase II transcription by Act D and its resumption due to the addition of THP(A) and THP(B). Relative intensities of the bands were determined as in Table 6. The concentration of the DNA was 71.4 μM.
(§2) The inhibition of RNA polymerase transcription caused by Act D binding to DNA was studied using the system described in Kadesch and Chamberlin, 1982, in which purified RNA polymerases from mammalian cells, such as RNA polymerases I, II and II from HeLa cells, are able to transcribe defined dCMP-tailed DNA templates efficiently and specifically. The dCMP-tailed DNA system allows quantitative studies of transcription reactions by the polymerase protein itself in the absence of other protein factors, and is thus an appropriate system to analyze the direct effect of DNA-binding drugs on the transcription process, and the protective effect of THP(A) and THP(B) on transcription in the presence of Act D.
(§3) DNA-dependent RNA polymerases I, II and III from HeLa cells (pol I, pol II and pol III, respectively) were purified by a method which is a modification of the procedure described by Hodo and Blatti, 1977.
(§4) The templates DNA were linearized by restriction enzyme Pst I generating a 3' protruding end, and tailed at both ends with dCTP by using terminal transferase (Boehringer Mannheim). Following ethanol precipitation, the dCMP-tailed DNAs were digested with a second restriction enzyme, and the selected tailed fragment was purified from agarose gel as described by Kadesch and Chamberlin, 1982.
Transcription reaction mixtures were incubated in 15 μl of transcription buffer containing 70 mM Tris-HCl (pH 7.9), 0.1M NH4 Cl, 6 mM MgCl2, 5 mM spermidine, 10% glycerol, 0.15 mM dithriothreitol, 0.6 μg of dCMP-tailed template, and 0.5 μl of HeLa RNA polymerase (3u) at 30° C. for 10 min. Pulse buffer (3.5 μl) containing 4.3 mM of ATP, GTP and CTP, and 170 μM UTP, 20 μCi of [α-^32 P]UTP was added to the transcription reaction mixture for 20 seconds incubation. Transcription elongation then took place by adding 1.5 μl of chase buffer containing 7 mM UTP in the presence or absence of 0.06 μg Act D. Transcription elongation was carried out for 10 min and was then stopped by addition of proteinase K buffer (0.6% SDS; 25 mM Tris pH 7.9; 25 mM EDTA final concentration) 200 μg/ml proteinase K, and 30 μg of tRNA, and incubated for 25 min at 65° C. The sample was ethanol precipitated, pellet was resuspended in loading buffer (90% formamide; 0.5×Tris borate buffer) and subjected to 6% polyacrylamide--urea gel electrophoresis. The autoradiogram of the gel was analyzed by molecular dynamics computing densitometer to determine the relative intensities of the bands. (Nucleoside triphosphates and tRNA were purchased from Sigma, proteinase K from Boehringer Mannheim, and [α-^32 P]CTP (400 Ci/mmol) from Amersham International, United Kingdom).
The sensitivity of the three RNA polymerases from HeLa cells to various concentrations of Act D was determined, using the purified polymerases and a dCMP-tailed template of 225 bp for pol I and of 420 bp for pol II and pol III. These templates are expected to give runoff transcripts of 225 and 420 nucleotides, respectively, since RNA polymerase initiates transcription at discrete sites at the single-stranded tail double stranded duplex junction. In all experiments a pulse-chase protocol was used.
It was figured that the concentration of the THP(A)+THP(B) required to prevent binding of Act D to DNA would be higher than that of Act D, since they are expected to protect the DNA in general and not necessarily at d(GpC) base pair (bp), whereas the concentration of Act D is related to the d(GpC) content of the DNA. […] Yet when THP(A) and THP(B) were added together in a ratio of 1:1, their effect was dramatic. At a concentration of 200 μM there was a recovery of 75% of transcription in the presence of 2.5 μM Act D, which by itself would have inhibited 97% of the reaction. […]

enzymes = conditions: e.g. against heating, freezing and drying; cited from earlier work
d(ATGCAT) = experiment: 1H NMR titration: equilibrium binding of Act D to d(ATGCAT) in presence and absence of THPs; conditions: no THPs
Source text: Expanded views of (a) and (a') are shown in spectra (A) and (A'), respectively of FIG. 4(b). The spectra were obtained at pH 7 (as in FIG. 3).
(c) Binding of Act D to d(ATGCAT). The binding of Act D to free oligonucleotide and to the oligonucleotide-THPs complex have been investigated by the ^1 H NMR titration technique.
The equilibrium binding properties of Act D-d(ATGCAT) in the presence and absence of the THPs (Table 4) were derived from the proton peak area ratios of the free hexamer to the bound Act D-hexamer.

[3] = tested on: RNA polymerase I from HeLa cells; experiment: In vitro transcription of dCMP-tailed template, RNA polymerase I; format: biochemical, mammalian
Source text: as §2, with “D. […]” for “D.”
(§5) Transcription reaction mixtures were incubated in 15 μl of transcription buffer containing 70 mM Tris-HCl (pH 7.9), 0.1M NH4 Cl, 6 mM MgCl2, 5 mM spermidine, 10% glycerol, 0.15 mM dithriothreitol, 0.6 μg of dCMP-tailed template, and 0.5 μl of HeLa RNA polymerase (3u) at 30° C. for 10 min. […] The autoradiogram of the gel was analyzed by molecular dynamics computing densitometer to determine the relative intensities of the bands. […]
(§6) The sensitivity of the three RNA polymerases from HeLa cells to various concentrations of Act D was determined, using the purified polymerases and a dCMP-tailed template of 225 bp for pol I and of 420 bp for pol II and pol III. […]

[4] = tested on: RNA polymerase III from HeLa cells; experiment: In vitro transcription of dCMP-tailed template, RNA polymerase III; format: biochemical, mammalian
Source text: as §2, §3, §4, §5, §6

[5] = tested on: RNA polymerases I, II and III from HeLa cells; experiment: In vitro transcription of dCMP-tailed template, summary for the three polymerases; format: biochemical, mammalian; conditions: pol I
Source text: as §2, §5, §6

[6] = tested on: HeLa whole cell extract (WCE); experiment: In vitro transcription using HeLa whole cell extract (WCE); format: biochemical
Method: The DNA was preincubated with THPs (A+B) at increasing concentrations for 20 min at 30° C., actinomycin D was then added at a concentration of 0.4 μg/ml. Following 20 min of incubation, WCE (10 μl) was added for incubation of 20 min at 30° C. Radioactive nucleotide mix was then added for a pulse of 5 min followed by addition of chase mix containing 10 mM CTP. Transcription proceeded for 30 min at 30° C. and was then stopped. […] Lane M--molecular weight markers. Lane C--control reaction without […] or THPs. Lanes of reaction with 0.4 μg/ml actinomycin D are marked (+), lanes of increasing concentrations of THPs (0, 5, 10, 20, 50, 100, 200, 500 μg/ml) are also marked above the lanes.
A 20-μl reaction contained 10 μl WCE, 1 μg DNA, 4 mM creatine phosphate, 500 μM ATP, GTP, UTP, 50 μM CTP, 20 μCi of [α-^32 P]CTP, and transcription was performed at 30° C. All reactions were preincubated 20 min before the addition of the nucleotide mixture; 3 min after the addition of radioactive nucleotides, (pulse), chase mix containing 10 mM unlabelled CTP was added and transcription proceeded for additional 20 min.

[7] = Toxicity on administration to mice; format: in vivo; conditions: doses of 1, 10 and 100 mg/100 g body weight
Source text: as §1

E. coli = E. coli growth under high salt or in the presence of adriamycin; format: cell-based; conditions: conditions which otherwise prevent E. coli growth
HL60 cells = experiment: [3H] thymidine incorporation (DNA synthesis) in HL60 cells; format: cell-based; conditions: Homo sapiens, HL-60, read-out: inhibition of [3H] thymidine incorporation
Method: FIG. 6 illustrates reversal of adriamycin inhibition of DNA synthesis due to THPs. It depicts a schematic presentation of percent [^3 H] thymidine incorporated versus adriamycin concentration according to the table below the scheme. Empty squares--[^3 H] thymidine incorporation versus adriamycin concentration. Filled squares--[^3 H] thymidine incorporation versus adriamycin concentration in the presence of THPs (100 μg/ml).
HL60 cells were grown in RPMI medium (Gibco) containing 10% fetal calf serum (Biological Laboratories--Bet Haemek) in microwell plates (Nunc). Cells were suspended in medium at a concentration of 2×10^5 cells per ml and dispersed into the wells of the plates in 100 μl aliquots. Following 20 hrs of incubation at 37° C., the cells were treated with THPs (100 μg/ml) and adriamycin at increasing concentrations as indicated in FIG. 6. After 24 hrs [^3 H] thymidine was added (1 μCi/well, […]) for a duration of 3 hrs. Thymidine incorporation was stopped by addition of 25 μl trichloroacetic acid (TCA) at 20%, and the plates were placed at 4° C. overnight. TCA precipitates were washed with 10% TCA (100 μl), solubilized in 100 μl 1N NaOH and transferred to vials for counting in the presence of 3 ml scintillation solution containing toluene:Lumax (Lumac, The Netherlands) (3:2) mix. Assays were performed in triplicates.

[8] = THP 10 μg/ml (66 μM, 60 μM printed for THP(B)), Act D 3 μg/ml [2.5 μM]
[9] = THP 30 μg/ml (200 μM), Act D 3 μg/ml [2.5 μM]
[10] = THP 60 μg/ml (400 μM), Act D 3 μg/ml [2.5 μM]
[11] = THP 60 μg/ml (400 μM), without Act D

CC1=NCC[C@@H](C(=O)O)N1 [THP(B), 2-methyl-4-carboxy-3,4,5,6-tetrahydropyrimidine]
antibiotic activity [1]: do not have antibiotic activity | % transcription [2, 8]: 1.0% | % transcription [2, 9]: 2.7% | % transcription [2, 10]: 5.1% | % transcription [2, 11]: 100% | effect of the THP by itself on the transcription reactions ([2]; without Act D): did not inhibit the transcription reactions | protective effect on enzymes (enzymes): protective effect on enzymes

Cc1c2oc3c(C)ccc(C(=O)N[C@@H]4C(=O)N[C@H](C(C)C)C(=O)N5CCC[C@H]5C(=O)N(C)CC(=O)N(C)[C@@H](C(C)C)C(=O)O[C@@H]4C)c3nc-2c(C(=O)N[C@@H]2C(=O)N[C@H](C(C)C)C(=O)N3CCC[C@H]3C(=O)N(C)CC(=O)N(C)[C@@H](C(C)C)C(=O)O[C@@H]2C)c(N)c1=O [Act D, Actinomycin D] (I: T[dV]P[Sar][NMeV] / II: T[dV]P[Sar][NMeV]; ester I:1-I:C, II:1-II:C; linker I:N-II:N via Actinocin(9to1))
d(ATGCAT) (free/bound) (d(ATGCAT); molar ratio Act D/d(ATGCAT) 0.16): 4.9 | d(ATGCAT) (free/bound) (d(ATGCAT); molar ratio Act D/d(ATGCAT) 0.32): 1.7 | d(ATGCAT) (free/bound) (d(ATGCAT); molar ratio Act D/d(ATGCAT) 0.48): 0.8 | d(ATGCAT) (free/bound) (d(ATGCAT); molar ratio Act D/d(ATGCAT) 0.64): 0.4 | Percentage of residual transcription ([3]; Actinomycin-D 1 μg/ml): 16% | Percentage of residual transcription ([3]; Actinomycin-D 5 μg/ml): 3% | inhibition of transcription ([2]; Act D 2.5 μM (3 μg/ml) by itself): 97% | % transcription ([2]; Act D 3 μg/ml [2.5 μM], THP 0): 0.2% | Percentage of residual transcription ([2]; Actinomycin-D 1 μg/ml): 22% | Percentage of residual transcription ([2]; Actinomycin-D 4 μg/ml): 3% | Percentage of residual transcription ([2]; Actinomycin-D 5 μg/ml): 3% | Percentage of residual transcription ([4]; Actinomycin-D 1 μg/ml): 13% | Percentage of residual transcription ([4]; Actinomycin-D 3 μg/ml): 3% | Percentage of residual transcription ([4]; Actinomycin-D 5 μg/ml): 0.1% | residual transcription ([5]; 1 μg/ml Act D added with the chase): 10-20% | residual transcription ([5]; Act D 3-5 μg/ml): 0.1-3% | inhibition of the transcription reaction ([6]; Act D alone at 0.4 μg/ml): 80% | residual transcription ([6]; actinomycin D alone, 0.4 μg/ml): 20%

CC1=NCC(O)C(C(=O)O)N1 (stereo not drawn) [THP(A), 2-methyl-4-carboxy-5-hydroxy-3,4,5,6-tetrahydropyrimidine]
toxic effects [7]: no toxic effects | antibiotic activity [1]: do not have antibiotic activity | growth of E. coli in the presence of adriamycin (E. coli): enable efficient growth of E. coli | growth of E. coli under high salt concentrations (E. coli): enable efficient growth of E. coli | % transcription [2, 8]: 0.2% | % transcription [2, 9]: 0.5% | % transcription [2, 10]: 1.5% | % transcription [2, 11]: 100% | effect of the THP by itself on the transcription reactions ([2]; without Act D): did not inhibit the transcription reactions

COc1cccc2c1C(=O)c1c(O)c3c(c(O)c1C2=O)C[C@@](O)(C(=O)CO)C[C@@H]3O[C@H]1C[C@H](N)[C@H](O)[C@H](C)O1 [adriamycin]
inhibition at 0.01 µg/mL (HL60 cells): 30% | inhibition at 0.02 µg/mL (HL60 cells): 40%
